The format of data set [1] is in vivo, Rattus norvegicus. Conditions: about 3.4 mg/kg difethialone per os (40% homo-, 60% hetero-stereoisomer, each racemic), mean of six rats. The method, then:
About 0.525 g (±0.025 g) of rat liver is weighed out accurately and placed in a 50 mL polypropylene tube. 10 mL of acetone are added and the suspension is homogenized using an Ultra-Turrax® homogenizer/disperser for a time of about 30 seconds. The homogenizer/disperser shaft is rinsed with hot water and then twice with 20 mL of acetone in a polypropylene tube. The homogenate is centrifuged for 5 minutes at a centrifugation speed of 3000 rpm (revolutions per minute). The supernatant is collected and transferred into a test tube. The sample is subjected to evaporation under a stream of nitrogen (N2) at a temperature of 40° C. so as to form a dry extract.
1 mL of acetonitrile is added to the tube containing the dry extract so as to dissolve it. The acetonitrile solution is washed twice successively with 1 mL of hexane. The lipid-free extract is dried under a stream of nitrogen (N2) at a temperature of 40° C. and is then taken up in 0.5 mL of methanol and dissolved by vortex stirring. 0.5 mL of ultra-pure (Milli-Q) water is then added. The sample is vortex-homogenized.
1 mL of dichloromethane, then 1 mL of methanol, then 1 mL of ultra-pure (Milli-Q) water are passed through an Oasis HLB 1 cc cartridge (WAT094225, Waters). The lipid-free liver extract (1 mL of MeOH/Milli-Q H2O) containing difethialone is then loaded onto the top of the cartridge so that the liver extract penetrates through the cartridge by gravity on contact with the solid phase. 1 mL of washing solution formed from methanol and ultra-pure water in a 90/10 volume proportion is then loaded onto the top of the cartridge. The cartridge is dried by suction under vacuum connected to the bottom of the cartridge. 1 mL of eluting solution formed from dichloromethane and methanol in a 90/10 volume proportion is then loaded onto the top of the cartridge and an eluate comprising difethialone is collected at the bottom of the cartridge. The solvent of the eluate is evaporated off under a stream of nitrogen (N2) at a temperature of 40° C. The sample is taken up in 0.5 mL of acetonitrile and the acetonitrile solution containing difethialone is filtered through a 0.2 μm filter.
The composition is analysed by high-pressure liquid chromatography on a chiral column as described in point A2) above.
A solution of a mixture of homo-stereoisomer (DFN-Homo-SI) and of hetero-stereoisomer (DFN-Hetero-SI) of difethialone in a mixture of vegetable oil and 5% DMSO is administered by tube-feeding (“per os”) to 8-week-old coumaphen-sensitive rats (male and female Rattus norvegicus) weighing about 200 g. The molar proportion of homo-stereoisomer is 40% and the molar proportion of hetero-stereoisomer is 60%. Each configurational stereoisomer of difethialone is formed from a racemic mixture of the two enantiomers of said corresponding configurational stereoisomer.
On D0, a tube-feeding solution is administered to each rat so that the amount of difethialone ingested by each rat is about 3.4 mg per kilogram of rat. To avoid haemorrhage, the rats are also treated daily by subcutaneous administration of a dose of vitamin K1 (as haemorrhage antidote) at a rate of […] per 200 g of live rat weight.
At 4 hours (H+4), 9 hours (H+9), 24 hours (H+24), 120 hours (H+120), 168 hours (H+168) and 216 hours (H+216) after tube-feeding, three male rats and three female rats anaesthetized beforehand with isoflurane are euthanized, the liver of the euthanized rats is removed, the difethialone is then extracted from the liver, the amount of each of the configurational stereoisomers of difethialone is assayed, the area under the peaks in the chromatogram obtained is measured and each configurational stereoisomer is quantified by comparison with a calibration curve. […]

The format of data set [2] is in vivo, Rattus norvegicus. The following applies: 48 hours after tube-feeding; about 3.4 mg/kg difethialone per os (40% homo-, 60% hetero-stereoisomer, each racemic); mean of six rats.
Where [3] appears, read: 4 hours after tube-feeding, daily vitamin K1.

Where two headings read alike, the source gives them in different places.

Consider `Oc1c(C2CC(c3ccc(-c4ccc(Br)cc4)cc3)Cc3ccccc32)c(=S)oc2ccccc12` (single isomer, unassigned) [DFN-Hetero-dextro, 3-(4′-bromobiphenyl-4-yl)-1-(4-hydroxythiocoumarin-3-yl)-1,2,3,4-tetrahydronaphthalene], for which the Hepatic content in data set [1] (setting [3]) came to 10589.5 ng/g; in data set [1] (9 hours after tube-feeding), 12155.5 ng/g; in data set [1] (24 hours after tube-feeding), 8102 ng/g; in data set [1] (120 hours after tube-feeding), 5431.5 ng/g; in data set [1] (168 hours after tube-feeding), 3011 ng/g; in data set [1] (216 hours after tube-feeding), 4030.5 ng/g. For the same compound, the Hepatic content in data set [2] was determined as 7974.5 ng/g.

`Oc1c(C2CC(c3ccc(-c4ccc(Br)cc4)cc3)Cc3ccccc32)c(=S)oc2ccccc12` (single isomer, unassigned) [DFN-Homo-dextro, 3-(4′-bromobiphenyl-4-yl)-1-(4-hydroxythiocoumarin-3-yl)-1,2,3,4-tetrahydronaphthalene]: the Hepatic content in data set [1] (setting [3]) came out at 4566 ng/g; in data set [1] (9 hours after tube-feeding), 4692.5 ng/g; in data set [1] (24 hours after tube-feeding) it was 1243.5 ng/g; in data set [1] (120 hours after tube-feeding), 192.5 ng/g; in data set [1] (168 hours after tube-feeding), 129 ng/g; in data set [1] (216 hours after tube-feeding) it was 77.5 ng/g. The compound further registered a Hepatic content in data set [2] of 720.5 ng/g.

These data come from patent publication US10506808B2, “Composition and rodenticide bait comprising difethialone and method for controlling target rodent pests” (priority 2015, dated 2019).
